Data reported in article PMC6369734, “Spy vs. spy: selecting the best reporter for ^19F NMR competition experiments” (Chemical Communications (Cambridge, England), 2019).

Each compound was assayed against T1, VHL (VBC complex), Hyp site (Homo sapiens, UniProt P40337) (assay: 19F NMR competition experiment, displacement of spy molecule 19). Conditions: 19 at 50 μM, VHL at 1.0 μM.
T1 construct: equimolar complex of pVHL54-213, eloB1-104 and; made in house; host or cells: E. coli
Assay type: binding
Method: Lastly, the utility and scope of using spy molecule 19 to quantify binding of competitors across a wide range of affinities was evaluated (Fig. 5). Five compounds were titrated against 19 at 50 μM and VHL at 1.0 μM. In all cases the displacement of the spy molecule was concentration-dependent and the Ki (inhibition constant) values were derived from the respective IC50 using a competitive binding model.[12] The measured binding affinities compared remarkably well with the respective values obtained by SPR across 4-log units. The same experiment was attempted with spy molecules 6 and 11 under the same conditions, and in these cases, the assay could not differentiate the binders as efficiently (ESI, ^† Fig. S2–S4), since this would require higher protein concentration.
6. Competition experiments by 19F NMR
As full measurements of R2 would be very time consuming, the competition experiments were performed using a single 19F CPMG experiment (decoupled) per sample with a fixed CPMG delay. To determine the best CPMG delay for a given spy molecule and assay condition, the procedure described in Figure S5 was developed based on the transverse relaxation rate equations.[7] By knowing the relaxation rates of the spy molecule free in solution and in presence of protein, the CPMG delay where the difference between the NMR peaks is maximum is hereon referred as dmax. The dmax for all the conditions tested for each spy molecule can be found in section 8, together with the respective values of R2 and C2.
Method for selecting the best CPMG delay for competition experiments. With the transverse relaxation rates of the spy molecule free in solution (R2F, resulting in the blue plot) and bound to protein (R2B, resulting in the red plot), the difference between the two curves is described by I(t)D (cyan curve). To obtain dmax, the delay where the difference curve reaches its maximum, the first derivative of I(t)D was obtained and equalled to 0, subsequently isolating t (CPMG filter). […]

| Displacement of spy molecule 19 | Structure (SMILES) |
| --- | --- |
| concentration dependent | CC(C)(C)CC(=O)N1C[C@H](O)C[C@H]1C(=O)NCc1ccc(Br)c(C(F)(F)F)c1 [Compound 3] |
| concentration dependent | CC(=O)N1C[C@H](O)C[C@H]1C(=O)NCc1ccc(Br)cc1C(F)(F)F [Compound 10] |
| concentration dependent | CC(=O)NC(C(=O)N1CC(O)CC1C(=O)NCc1ccc(Br)cc1C(F)(F)F)C(C)(C)C (stereo not drawn) [Compound 12] |
